Reference: US11629171B2, “Beta-hairpin peptidomimetics” (POLYPHOR AG, priority 2017, dated 2023)
In brackets after ≈: the same amount, converted by molar mass. Where a SMILES comes first, the peptide text is derived from it. Bridges are numbered along the chain shown (N, C = ends). Roman numbers before positions name the chains, in order. [ ]: non-standard residue; d: D form. The star is where a group is joined. Thr(ol) = C[C@@H](O)[C@H](N)CO; Pen = CC(C)(S)[C@H](N)C(=O)O; Tle = CC(C)(C)[C@H](N)C(=O)O; Hiv = CC(C)[C@H](O)C(=O)O; Isovaleryl = CC(C)CC(=O)*; dDab = NCC[C@@H](N)C(=O)O; hSer = N[C@@H](CCO)C(=O)O; Orn = NCCC[C@H](N)C(=O)O; Dab = NCC[C@H](N)C(=O)O; Dap = NC[C@H](N)C(=O)O; NHCH2CH2OH = OCCN*

Columns and labels:
Format in all cases: cell-based
[1] = tested on: Acinetobacter baumannii 872842; details: 872842
Procedure, shortened: (§1)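 MIC in μg/mL, read as no visible growth after 18-20 hours at 35° C. Peptides were serially diluted two-fold in MH-II broth plus P-80 (0.002% final, v/v) and inoculated at about 10^6 CFU/mL following the CLSI broth microdilution standard.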

[2] = tested on: Acinetobacter baumannii DSM 30008; details: DSM 30008
Procedure, shortened: as §1

[3] = tested on: Enterobacter cloacae 848840; details: 848840
Procedure, shortened: as §1

Escherichia coli 926415 = details: 926415
Procedure, shortened: as §1

[4] = tested on: Escherichia coli ATCC 25922; details: ATCC 25922
Procedure, shortened: as §1

[5] = tested on: Klebsiella pneumoniae 968733; details: 968733
Procedure, shortened: as §1

[6] = tested on: Klebsiella pneumoniae SSI #3010; details: SSI #3010
Procedure, shortened: as §1

[7] = tested on: Pseudomonas aeruginosa ATCC 27853; details: ATCC 27853
Procedure, shortened: as §1

[8] = tested on: human red blood cells (hRBC); assay: Hemolysis; details: red cells of human, 1 h, 200
Procedure, shortened: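 hRBC washed 4× in PBS; 200 μg/mL peptide + 20% (v/v) hRBC, 1 h, 37° C, 300 rpm. Spin, supernatant ~7.5-fold diluted, OD540 blank corrected. % hemolysis = OD540 peptide / OD540 Triton X-100 × 100.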

Row | SMILES | MIC [1] [µg/mL] | MIC [2] [µg/mL] | MIC [3] [µg/mL] | MIC (Escherichia coli 926415) [µg/mL] | MIC [4] [µg/mL] | MIC [5] [µg/mL] | MIC [6] [µg/mL] | MIC [7] [µg/mL] | Hemolysis at 200 μg/mL [8] [%] | Acinetobacter baumannii DSM 30008 MIC [2] [µg/mL] | Escherichia coli ATCC 25922 MIC [4] [µg/mL] | Klebsiella pneumoniae SSI #3010 MIC [6] [µg/mL] | Pseudomonas aeruginosa ATCC 27853 MIC [7] [µg/mL]
1 | CC(=O)N[C@H](C(=O)N[C@H]1CSSC[C@@H](C(=O)N[C@@H](Cc2ccc(O)cc2)C(=O)NCCO)NC(=O)[C@H](C(C)(C)C)NC(=O)[C@H](CO)NC(=O)[C@H](Cc2c[nH]c3ccccc23)NC(=O)[C@H](CCO)NC(=O)[C@@H](CCN)NC(=O)[C@H](CCC(=O)N[C@@H](CCN)C(=O)N[C@H](C(=O)N[C@@H](CCN)C(=O)N[C@H]2CCNC(=O)[C@H]([C@@H](C)O)NC(=O)[C@H](CCN)NC(=O)[C@H](CCN)NC(=O)[C@H](CC(C)C)NC(=O)[C@@H](CC(C)C)NC(=O)[C@H](CCN)NC2=O)[C@@H](C)O)NC(=O)[C@H](CCN)NC(=O)[C@H](CO)NC1=O)C(C)C [Ex. 71] (I: Ac-VCS[Dab]E[dDab][hSer]WS[Tle]CY-NHCH2CH2OH / II: [Dab]T[Dab][Dab][Dab][dL]L[Dab][Dab]T; disulfide I:2-I:11; amide I:5-II:N; lactam II:4-II:C) | 0.125 (≈ 0.0503 µM) | 0.0625 (≈ 0.0252 µM) | 0.25 (≈ 0.101 µM) | 0.25 (≈ 0.101 µM) | 0.0625 (≈ 0.0252 µM) | 0.25 (≈ 0.101 µM) | 0.125 (≈ 0.0503 µM) | 0.125 (≈ 0.0503 µM) | 1 | – | – | – | –
2 | CC(C)C[C@@H]1NC(=O)[C@@H](CC(C)C)NC(=O)[C@H](CCN)NC(=O)[C@@H](NC(=O)[C@H](CN)NC(=O)[C@@H](NC(=O)[C@H](CCN)NC(=O)CC[C@H]2NC(=O)[C@@H](CCN)NC(=O)CNC(=O)[C@H](CCN)NC(=O)[C@H](Cc3ccc(O)cc3)NC(=O)[C@@H](NC(=O)[C@@H](O)C(C)C)CSSC[C@@H](C(=O)N[C@H](C(N)=O)[C@@H](C)O)NC(=O)[C@H](C(C)(C)C)NC(=O)[C@H](CO)NC(=O)[C@H](Cc3c[nH]c4ccccc34)NC2=O)[C@@H](C)O)CCNC(=O)[C@H]([C@@H](C)O)NC(=O)[C@H](CCN)NC(=O)[C@H](CCN)NC1=O [Ex. 171] (I: H-[Hiv]CY[Dab]G[dDab][dE]WS[Tle]CT-NH2 / II: [Dab]T[Dap][Dab][Dab][dL]L[Dab][Dab]T; disulfide I:2-I:11; amide I:7-II:N; lactam II:4-II:C) | 0.0625 (≈ 0.0265 µM) | 0.0625 (≈ 0.0265 µM) | 0.5 (≈ 0.212 µM) | 0.125 (≈ 0.0531 µM) | 0.125 (≈ 0.0531 µM) | 0.5 (≈ 0.212 µM) | 0.125 (≈ 0.0531 µM) | 0.25 (≈ 0.106 µM) | <1 | – | – | – | –
3 | CC(=O)N[C@@H]1C(=O)N[C@@H]([C@@H](C)O)C(=O)N[C@@H](Cc2ccc(O)cc2)C(=O)N[C@@H](CCN)C(=O)N[C@@H](CCC(=O)N[C@@H](CCN)C(=O)N[C@H](C(=O)N[C@@H](CN)C(=O)N[C@H]2CCNC(=O)[C@H]([C@@H](C)O)NC(=O)[C@H](CCN)NC(=O)[C@H](CCN)NC(=O)[C@H](CC(C)C)NC(=O)[C@@H](CC(C)C)NC(=O)[C@H](CCN)NC2=O)[C@@H](C)O)C(=O)N[C@H](CCN)C(=O)N[C@@H](CCN)C(=O)N[C@@H](Cc2c[nH]c3ccccc23)C(=O)N[C@@H](CCC(=O)O)C(=O)N[C@@H](C(C)(C)C)C(=O)N[C@@H](C)C(=O)N[C@H](C(N)=O)CSSC1(C)C [Ex. 228] (I: Ac-[Pen]TY[Dab]E[dDab][Dab]WE[Tle]AC-NH2 / II: [Dab]T[Dap][Dab][Dab][dL]L[Dab][Dab]T; disulfide I:1-I:12; amide I:5-II:N; lactam II:4-II:C) | 4 (≈ 1.61 µM) | 1 (≈ 0.403 µM) | 8 (≈ 3.22 µM) | 1 (≈ 0.403 µM) | 0.5 (≈ 0.201 µM) | 1 (≈ 0.403 µM) | 0.25 (≈ 0.101 µM) | 0.25 (≈ 0.101 µM) | <1 | – | – | – | –
4 | CC(=O)N[C@H](C(=O)N[C@H]1CCCNC(=O)[C@@H](C(C)C)NC(=O)[C@H](C(C)(C)C)NC(=O)[C@H](CO)NC(=O)[C@H](Cc2c[nH]c3ccccc23)NC(=O)[C@H](CCO)NC(=O)[C@@H](CCN)NC(=O)[C@H](CCC(=O)N[C@@H](CCN)C(=O)N[C@H](C(=O)N[C@@H](CN)C(=O)N[C@H]2CCNC(=O)[C@H]([C@@H](C)O)NC(=O)[C@H](CCN)NC(=O)[C@H](CCN)NC(=O)[C@H](CC(C)C)NC(=O)[C@@H](CC(C)C)NC(=O)[C@H](CCN)NC2=O)[C@@H](C)O)NC(=O)[C@H](CO)NC(=O)[C@H](Cc2ccc(O)cc2)NC1=O)C(C)C [Ex. 27] (I: Ac-V[Orn]YSE[dDab][hSer]WS[Tle][dV] / II: [Dab]T[Dap][Dab][Dab][dL]L[Dab][Dab]T; lactam I:2-I:C, II:4-II:C; amide I:5-II:N) | 0.125 (≈ 0.0539 µM) | 0.0625 (≈ 0.027 µM) | 0.25 (≈ 0.108 µM) | 1 (≈ 0.431 µM) | 0.0625 (≈ 0.027 µM) | 1 (≈ 0.431 µM) | 0.25 (≈ 0.108 µM) | 0.5 (≈ 0.216 µM) | <1 | – | – | – | –
5 | CC(C)CC(=O)N[C@H]1CSSC[C@@H](C(=O)N[C@H](CO)[C@@H](C)O)NC(=O)[C@H](C(C)(C)C)NC(=O)[C@H](CO)NC(=O)[C@H](Cc2c[nH]c3ccccc23)NC(=O)[C@H](CCO)NC(=O)[C@@H](CCN)NC(=O)[C@H](CCC(=O)N[C@@H](CCN)C(=O)N[C@H](C(=O)N[C@@H](CCN)C(=O)N[C@H]2CCNC(=O)[C@H]([C@@H](C)O)NC(=O)[C@H](CCN)NC(=O)[C@H](CCN)NC(=O)[C@H](CC(C)C)NC(=O)[C@@H](CC(C)C)NC(=O)[C@H](CCN)NC2=O)[C@@H](C)O)NC(=O)[C@H](CCN)NC(=O)[C@H](Cc2ccc(O)cc2)NC1=O [Example 2] (I: Isovaleryl-CY[Dab]E[dDab][hSer]WS[Tle]C[Thr(ol)] / II: [Dab]T[Dab][Dab][Dab][dL]L[Dab][Dab]T; disulfide I:1-I:10; amide I:4-II:N; lactam II:4-II:C) | 0.125 (≈ 0.0524 µM) | 0.125 (≈ 0.0524 µM) | 0.5 (≈ 0.21 µM) | 0.125 (≈ 0.0524 µM) | 0.125 (≈ 0.0524 µM) | 0.25 (≈ 0.105 µM) | 0.5 (≈ 0.21 µM) | 0.25 (≈ 0.105 µM) | <1 | – | – | – | –
6 | CC(=O)N[C@@H](CCN)C(=O)N[C@H](C(=O)N[C@H](C(=O)N[C@@H](Cc1ccc(O)cc1)C(=O)N[C@@H](CN)C(=O)N[C@@H](CCC(=O)N[C@@H](CCN)C(=O)N[C@H](C(=O)N[C@@H](CN)C(=O)N[C@H]1CCNC(=O)[C@H]([C@@H](C)O)NC(=O)[C@H](CCN)NC(=O)[C@H](CCN)NC(=O)[C@H](CC(C)C)NC(=O)[C@@H](CC(C)C)NC(=O)[C@H](CCN)NC1=O)[C@@H](C)O)C(=O)N[C@H](CCN)C(=O)N[C@@H](CCN)C(=O)N[C@@H](Cc1c[nH]c2ccccc12)C(=O)N[C@@H](CO)C(=O)N[C@H](C(=O)N[C@@H](C)C(=O)N[C@@H](CO)C(=O)N[C@@H](CCC(=O)O)C(N)=O)C(C)(C)C)[C@@H](C)O)C(C)C [Ex. 248] (I: Ac-[Dab]VTY[Dap]E[dDab][Dab]WS[Tle]ASE-NH2 / II: [Dab]T[Dap][Dab][Dab][dL]L[Dab][Dab]T; amide I:6-II:N; lactam II:4-II:C) | 1 (≈ 0.383 µM) | 0.5 (≈ 0.192 µM) | 4 (≈ 1.53 µM) | 0.25 (≈ 0.0958 µM) | 0.125 (≈ 0.0479 µM) | 4 (≈ 1.53 µM) | 0.125 (≈ 0.0479 µM) | 0.25 (≈ 0.0958 µM) | <1 | – | – | – | –
7 | CC(=O)N[C@@H](CC(C)C)C(=O)N[C@H]1CSSC[C@@H](C(=O)N[C@@H](CO)C(N)=O)NC(=O)[C@H](C(C)(C)C)NC(=O)[C@H](CCN)NC(=O)[C@H](Cc2c[nH]c3ccccc23)NC(=O)[C@H](CCN)NC(=O)[C@@H](CCN)NC(=O)[C@H](CCC(=O)N[C@@H](CCN)C(=O)N[C@H](C(=O)N[C@@H](CCN)C(=O)N[C@H]2CCNC(=O)[C@H]([C@@H](C)O)NC(=O)[C@H](CCN)NC(=O)[C@H](CCN)NC(=O)[C@H](CC(C)C)NC(=O)[C@@H](CC(C)C)NC(=O)[C@H](CCN)NC2=O)[C@@H](C)O)NC(=O)[C@H](CCN)NC(=O)[C@H](Cc2ccc(O)cc2)NC1=O [Ex. 352] (I: Ac-LCY[Dab]E[dDab][Dab]W[Dab][Tle]CS-NH2 / II: [Dab]T[Dab][Dab][Dab][dL]L[Dab][Dab]T; disulfide I:2-I:11; amide I:5-II:N; lactam II:4-II:C) | 4 (≈ 1.62 µM) | – | 8 (≈ 3.24 µM) | 0.25 (≈ 0.101 µM) | – | 0.5 (≈ 0.203 µM) | – | – | <1 | 1 | 0.125 | 0.125 | 0.25
8 | CC(=O)N[C@H](C(=O)N[C@H]1CCNC(=O)CC[C@@H](C(=O)N[C@@H](CO)C(N)=O)NC(=O)[C@H](C(C)C)NC(=O)[C@H](CO)NC(=O)[C@H](Cc2c[nH]c3ccccc23)NC(=O)[C@H](CO)NC(=O)[C@@H](CCN)NC(=O)[C@H](CCC(=O)N[C@@H](CCN)C(=O)N[C@H](C(=O)N[C@@H](CN)C(=O)N[C@H]2CCNC(=O)[C@H]([C@@H](C)O)NC(=O)[C@H](CCN)NC(=O)[C@H](CCN)NC(=O)[C@H](CC(C)C)NC(=O)[C@@H](CC(C)C)NC(=O)[C@H](CCN)NC2=O)[C@@H](C)O)NC(=O)[C@H](CN)NC(=O)[C@H](Cc2ccc(O)cc2)NC1=O)C(C)C [Ex. 147] (I: Ac-V[Dab]Y[Dap]E[dDab]SWSVES-NH2 / II: [Dab]T[Dap][Dab][Dab][dL]L[Dab][Dab]T; lactam I:2-I:11, II:4-II:C; amide I:5-II:N) | 0.25 (≈ 0.105 µM) | 0.0625 (≈ 0.0261 µM) | 0.125 (≈ 0.0523 µM) | 0.25 (≈ 0.105 µM) | 0.0625 (≈ 0.0261 µM) | 0.5 (≈ 0.209 µM) | 0.0625 (≈ 0.0261 µM) | 0.125 (≈ 0.0523 µM) | <1 | – | – | – | –
